This is an account of results in publication PMC9532951, “Identification and characterization of a novel SNAT2 (SLC38A2) inhibitor reveals synergy with glucose transport inhibition in cancer cells” (Frontiers in Pharmacology, 2022).

Several values for one entry are separate records, joined by “and”; a condition that tells them apart may be missing. Equal values may be shown once. Read-outs that look alike come from different tables or passages of the source.

For one experiment, the system named is OVCAR3 cells. Nature of the experiment: Growth assay (IncuCyte confluence), OVCAR3. It is filed as cell-based, human. A digest of the protocol:
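OVCAR3 cells were seeded at about 3000 cells/well in 96-well plates in DMEM/F12 with 10% FBS and 2 mM glutamine for 24 h. They then received 300 μL/well of medium with compounds plus penicillin/streptomycin. Plates sat in an IncuCyte at 37°C and 5% CO2, and confluence was imaged every 6 h or at the endpoint once untreated controls passed 90%. Growth is given as % confluence, and curves were fitted with the Gompertz function in OriginPro.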

In a further experiment the test system is HPAFII cells. The experiment can be described thus: Growth assay (IncuCyte confluence), HPAFII. In kind it is cell-based, human. Set-up: key to Growth (Figure 6A) / cell confluence (Figure 6F): % confluence. The protocol: Cells were seeded on 96-well flat bottom plates at approximately 3000 cells/well and incubated in growth medium (DMEM/F12 supplemented with 10% FBS, 2 mM glutamine) for 24 h. The next day, the growth medium was aspirated and exchanged with 300 μL/well of growth medium containing compounds at the indicated concentration. For live cell analysis, plates were placed in the IncuCyte system (Essen Bioscience), which was housed in a cell incubator (37°C, humidified atmosphere composed of 95% air and 5% CO2) and confluence measured at 6-h intervals or at the assay endpoint when untreated control cells reached a confluency >90%. Antibiotics (10 U/mL penicillin and 10 μg/ml streptomycin) were included in the treatment solutions.
Growth curves were generated using the Gompertz function of OriginPro software: y=ae^−e^(−k(x−xc))
Where a is the maximum confluence or upper asymptote, k is the growth rate coefficient, xc is the time point at which 50% confluence is reached (inflection point) and e is Euler’s number. Cell growth data are shown as % confluence.
Synergism between drug combinations was quantified using ZIP synergy scoring as calculated by SynergyFinder ([Yadav et al., 2015]).

In a further experiment the target is T1, SNAT1 and SNAT2 (Homo sapiens, UniProt Q9H2H9).
T1 construct: endogenous in cells; host or cells: HCC1806 clone C10 (ASCT2ko) and clone D126 (ASCT2ko, SNAT2ko), amino acid depleted for 24 h
T1 sequence (Q9H2H9 1-487): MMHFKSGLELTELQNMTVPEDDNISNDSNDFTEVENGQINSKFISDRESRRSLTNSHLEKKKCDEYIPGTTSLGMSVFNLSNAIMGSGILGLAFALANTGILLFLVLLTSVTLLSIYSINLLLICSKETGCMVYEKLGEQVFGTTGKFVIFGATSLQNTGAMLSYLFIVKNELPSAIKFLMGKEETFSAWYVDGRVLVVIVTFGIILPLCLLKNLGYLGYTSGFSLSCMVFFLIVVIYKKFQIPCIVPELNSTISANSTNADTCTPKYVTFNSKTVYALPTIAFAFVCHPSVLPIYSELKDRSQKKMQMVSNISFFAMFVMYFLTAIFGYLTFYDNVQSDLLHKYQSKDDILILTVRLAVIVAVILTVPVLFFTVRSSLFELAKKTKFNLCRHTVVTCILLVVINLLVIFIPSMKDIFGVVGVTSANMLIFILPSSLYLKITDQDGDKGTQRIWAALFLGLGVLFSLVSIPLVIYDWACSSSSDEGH
Nature of the experiment: FMP assay in HCC1806 clones C10 (ASCT2ko) and D126 (ASCT2ko, SNAT2ko). In kind it is cell-based. Conditions: D126 cells.

For `Cc1ccc(S(=O)(=O)N(C)c2ccsc2C(=O)NCc2ccccc2C(F)(F)F)cc1` [Compound 57_E, 3-(N-methyl (4-methylphenyl)sulfonamido)-N-(2-trifluoromethylbenzyl)thiophene-2-carboxamide], the “Growth (Figure 6A)” value was 94.3 and 98.2 and 97.5 in the experiment on OVCAR3 cells (concentration 1); 91.1 and 97.6 and 98.2 in the experiment with OVCAR3 cells (concentration 3); 93.85 and 97.6 and 98.05 in the experiment on OVCAR3 cells (concentration 10); 90.7 and 97.95 in the experiment on OVCAR3 cells (concentration 30); 89.25 and 92.95 and 91.35 in the experiment with OVCAR3 cells (concentration 100); 93.8 and 96.25 and 96.4 in the experiment with HPAFII cells (concentration 1). The “Growth (Figure 6A)” value in the experiment on HPAFII cells (concentration 3) is 93.35 and 98.85 and 97.6; in the experiment with HPAFII cells (concentration 10), 91.1 and 94.2 and 97.05; in the experiment with HPAFII cells (concentration 30) it was 73 and 75.75 and 89.85; in the experiment with HPAFII cells (concentration 100), 46.05 and 59.8 and 57.25. Besides, the tolerated concentration in the experiment on HPAFII cells is listed as not above 100 µM; with HPAFII cells (growth medium), “up to 30 μM”.

Turning to `N[C@@H](CCC(=O)NO)C(=O)O` [GHX, L-glutamic acid γ-monohydroxamate], the “block of glutamine (1 mM) FMP signal” value on SNAT1 and SNAT2 is “still blocked”. In addition, the FMP fluorescence is 22435 and 17495 and 17429 and 17955 and 18811 and 18812 and 18737 and 18055 and 17050 and 17347 on SNAT1 and SNAT2 (time 0, replicates 1-10); 20191 at SNAT1 and SNAT2 (time 12, replicates 1-10); 20609 and 15706 and 15219 and 15815 and 16260 and 16292 and 16468 and 15594 and 14527 and 15164 at SNAT1 and SNAT2 (time 30, replicates 1-10); 20541 and 15480 and 15193 and 15674 and 16277 and 16260 and 16583 and 15586 and 14696 and 15217 on SNAT1 and SNAT2 (time 40, replicates 1-10); 20610 and 15277 and 15074 and 15756 and 16154 and 16238 and 16249 and 15554 and 14656 and 15194 at SNAT1 and SNAT2 (time 50, replicates 1-10); 20690 and 15464 and 15031 and 15758 and 16045 and 16010 and 16126 and 15471 and 14546 and 15121 at SNAT1 and SNAT2 (time 60, replicates 1-10). Also, the FMP fluorescence on SNAT1 and SNAT2 (time 70, replicates 1-10) is 20527 and 15130 and 14967 and 15329 and 16082 and 16096 and 16209 and 15213 and 14316 and 15085; on SNAT1 and SNAT2 (time 80, replicates 1-10) it was 20404 and 15072 and 14875 and 15595 and 16009 and 15975 and 15951 and 15190 and 14182 and 15130; at SNAT1 and SNAT2 (time 90, replicates 1-10) it was 20524 and 15134 and 14788 and 15354 and 15654 and 15782 and 15863 and 15065 and 14296; at SNAT1 and SNAT2 (time -10, replicates 1-10), 22909 and 17766 and 17765 and 18446 and 19408 (2×) and 19505 and 18694 and 17349 and 17632; on SNAT1 and SNAT2 (time -20, replicates 1-10) it was 23556 and 18431 and 18738 and 19301 and 20185 and 20456 and 20335 and 19156 and 18269 and 18621.
